Experimental data as given in paper PMC6416464 (Drug Metabolism Letters, 2018).
Read-outs that look alike come from different tables or passages of the source.

What was measured:
rCYP1A2 = biological target: T1, rCYP1A2 (Homo sapiens, UniProt P05177); experiment: Metabolic stability / reaction phenotyping with recombinant human CYP1A2
T1 sequence (P05177 1-516): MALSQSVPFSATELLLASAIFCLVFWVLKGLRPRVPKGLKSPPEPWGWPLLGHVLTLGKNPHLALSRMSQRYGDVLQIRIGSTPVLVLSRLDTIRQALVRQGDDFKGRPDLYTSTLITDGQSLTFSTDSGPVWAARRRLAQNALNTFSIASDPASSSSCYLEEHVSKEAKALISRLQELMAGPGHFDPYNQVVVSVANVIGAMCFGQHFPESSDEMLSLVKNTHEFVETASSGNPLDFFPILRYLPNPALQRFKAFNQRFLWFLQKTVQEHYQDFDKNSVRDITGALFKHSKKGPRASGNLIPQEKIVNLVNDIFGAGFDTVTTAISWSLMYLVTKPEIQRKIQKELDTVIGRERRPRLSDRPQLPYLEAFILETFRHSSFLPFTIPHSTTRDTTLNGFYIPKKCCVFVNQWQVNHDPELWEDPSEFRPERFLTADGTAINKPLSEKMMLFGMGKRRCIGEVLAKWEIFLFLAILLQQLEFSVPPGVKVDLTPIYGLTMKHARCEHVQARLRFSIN

[1] = Metabolic stability, incubation with human liver cytosol; format: in vitro ADME; conditions: 1 µM test compound, 1 mg/mL protein
rCYP2C9 = rCYP2C9 (Homo sapiens, UniProt P11712); experiment: Metabolic stability / reaction phenotyping with recombinant human CYP2C9
CYP2C8 = biological target: T2, CYP2C8 (Homo sapiens, UniProt P10632); experiment: CYP inhibition in human liver microsomes, CYP2C8; conditions: HLM; for % Inhibition of Control Activity CYP2C8: NI: No Inhibitin
T2 sequence (P10632 1-490): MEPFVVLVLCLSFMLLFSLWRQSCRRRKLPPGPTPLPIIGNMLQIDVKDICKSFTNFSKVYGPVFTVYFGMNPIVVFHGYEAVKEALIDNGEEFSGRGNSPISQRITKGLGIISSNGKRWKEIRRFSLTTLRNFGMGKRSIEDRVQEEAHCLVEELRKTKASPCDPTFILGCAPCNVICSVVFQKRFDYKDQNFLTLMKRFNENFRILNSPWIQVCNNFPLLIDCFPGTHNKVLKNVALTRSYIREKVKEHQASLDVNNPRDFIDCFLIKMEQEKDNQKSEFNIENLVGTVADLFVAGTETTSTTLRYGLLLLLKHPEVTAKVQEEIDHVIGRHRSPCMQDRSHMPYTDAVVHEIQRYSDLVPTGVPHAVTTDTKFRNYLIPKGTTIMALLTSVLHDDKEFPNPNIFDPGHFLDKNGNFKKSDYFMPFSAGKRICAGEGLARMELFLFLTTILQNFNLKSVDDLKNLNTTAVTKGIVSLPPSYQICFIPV

[2] = cited from earlier work
CYP1A2 = biological target: T3, CYP1A2 (Homo sapiens, UniProt P05177); experiment: CYP inhibition in human liver microsomes, CYP1A2; conditions: inhibitor 10 µM; HLM; NI: No Inhibitin
T3 sequence (P05177 1-516): T1 sequence (P05177 1-516)

CYP2C19 = CYP2C19 (Homo sapiens, UniProt P33261); experiment: CYP inhibition in human liver microsomes, CYP2C19; conditions: inhibitor 10 µM; HLM; NI: No Inhibitin
[3] = Metabolic stability, incubation with human liver microsomes; conditions: 1 µM test compound, 0.5 mg/mL protein
rCYP2C19 = rCYP2C19 (Homo sapiens, UniProt P33261); experiment: Metabolic stability / reaction phenotyping with recombinant human CYP2C19
rCYP2C8 = biological target: T4, rCYP2C8 (Homo sapiens, UniProt P10632); experiment: Metabolic stability / reaction phenotyping with recombinant human CYP2C8; conditions: 1 µM test compound; 100 pmol/mL; 30 min
T4 sequence (P10632 1-490): T2 sequence (P10632 1-490)

rCYP2D6 = rCYP2D6 (Homo sapiens, UniProt P10635); experiment: Metabolic stability / reaction phenotyping with recombinant human CYP2D6; conditions: 1 µM test compound; 100 pmol/mL; 30 min
CYP3A4 = CYP3A4 (Homo sapiens, UniProt P08684); conditions: microsomes
CYP2C9 = CYP2C9 (Homo sapiens, UniProt P11712); experiment: CYP inhibition in human liver microsomes, CYP2C9; conditions: HLM; for % Inhibition of Control Activity CYP2C9: NI: No Inhibitin
rCYP3A4 = rCYP3A4 (Homo sapiens, UniProt P08684)
[4] = 1 µM test compound, 100 pmol/mL, 30 min

Chain of CYP2C9 (P11712 whole entry): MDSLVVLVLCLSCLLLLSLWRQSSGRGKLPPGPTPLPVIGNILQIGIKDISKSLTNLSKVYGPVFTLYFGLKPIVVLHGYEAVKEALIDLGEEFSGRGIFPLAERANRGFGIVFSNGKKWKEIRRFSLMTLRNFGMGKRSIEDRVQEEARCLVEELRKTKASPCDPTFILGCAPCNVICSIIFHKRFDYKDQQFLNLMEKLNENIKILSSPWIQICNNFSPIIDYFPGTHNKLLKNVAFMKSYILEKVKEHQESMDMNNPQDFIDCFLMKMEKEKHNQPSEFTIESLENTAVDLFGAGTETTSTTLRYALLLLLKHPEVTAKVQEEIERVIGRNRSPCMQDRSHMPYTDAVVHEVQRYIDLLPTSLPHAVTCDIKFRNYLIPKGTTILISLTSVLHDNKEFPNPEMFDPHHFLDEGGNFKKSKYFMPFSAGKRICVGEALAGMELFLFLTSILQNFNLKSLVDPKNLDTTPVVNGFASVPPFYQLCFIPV
Chain of rCYP2C9 (P11712 whole entry): as above
Chain of rCYP2C19 (P33261 whole entry): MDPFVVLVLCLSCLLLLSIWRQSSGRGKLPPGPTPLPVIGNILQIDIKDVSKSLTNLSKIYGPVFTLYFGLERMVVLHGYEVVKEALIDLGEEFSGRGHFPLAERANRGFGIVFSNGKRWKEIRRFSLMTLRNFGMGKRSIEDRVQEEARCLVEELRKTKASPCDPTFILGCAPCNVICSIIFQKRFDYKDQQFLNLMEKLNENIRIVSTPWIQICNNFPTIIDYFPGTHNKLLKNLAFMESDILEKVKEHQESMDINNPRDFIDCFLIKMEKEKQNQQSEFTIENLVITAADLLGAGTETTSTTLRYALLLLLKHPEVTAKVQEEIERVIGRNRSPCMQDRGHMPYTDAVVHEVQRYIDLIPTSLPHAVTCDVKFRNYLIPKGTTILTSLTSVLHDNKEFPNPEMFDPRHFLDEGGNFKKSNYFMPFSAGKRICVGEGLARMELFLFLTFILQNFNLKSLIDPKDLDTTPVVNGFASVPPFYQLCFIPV
Chain of rCYP3A4 (P08684 whole entry): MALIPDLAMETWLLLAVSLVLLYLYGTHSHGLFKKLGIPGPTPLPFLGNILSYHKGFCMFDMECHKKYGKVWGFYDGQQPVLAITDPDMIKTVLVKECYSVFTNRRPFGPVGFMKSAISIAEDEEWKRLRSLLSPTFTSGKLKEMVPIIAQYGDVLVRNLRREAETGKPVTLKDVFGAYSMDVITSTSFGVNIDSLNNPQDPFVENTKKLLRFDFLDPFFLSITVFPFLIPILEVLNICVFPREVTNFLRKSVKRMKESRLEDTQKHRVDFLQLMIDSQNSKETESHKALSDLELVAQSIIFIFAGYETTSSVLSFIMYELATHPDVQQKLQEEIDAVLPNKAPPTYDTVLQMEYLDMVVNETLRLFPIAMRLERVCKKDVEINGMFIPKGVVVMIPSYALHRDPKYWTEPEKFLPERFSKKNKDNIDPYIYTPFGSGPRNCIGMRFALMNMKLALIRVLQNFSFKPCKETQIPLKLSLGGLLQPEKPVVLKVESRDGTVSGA
Chain of CYP3A4 (P08684 2-503): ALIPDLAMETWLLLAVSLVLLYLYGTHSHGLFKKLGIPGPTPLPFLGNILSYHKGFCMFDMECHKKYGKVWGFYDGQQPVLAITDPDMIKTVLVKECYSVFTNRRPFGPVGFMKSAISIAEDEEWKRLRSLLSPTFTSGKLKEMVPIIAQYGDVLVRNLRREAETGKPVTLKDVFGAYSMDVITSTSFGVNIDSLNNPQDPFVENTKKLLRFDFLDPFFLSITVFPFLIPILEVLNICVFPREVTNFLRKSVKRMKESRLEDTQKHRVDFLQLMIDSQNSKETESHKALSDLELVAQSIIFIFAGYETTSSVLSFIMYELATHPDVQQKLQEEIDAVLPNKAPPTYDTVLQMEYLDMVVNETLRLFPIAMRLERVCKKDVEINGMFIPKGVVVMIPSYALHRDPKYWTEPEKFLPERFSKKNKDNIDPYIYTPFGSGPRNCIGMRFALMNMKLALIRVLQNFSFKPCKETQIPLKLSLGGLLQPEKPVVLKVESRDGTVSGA
Chain of rCYP2D6 (P10635 whole entry): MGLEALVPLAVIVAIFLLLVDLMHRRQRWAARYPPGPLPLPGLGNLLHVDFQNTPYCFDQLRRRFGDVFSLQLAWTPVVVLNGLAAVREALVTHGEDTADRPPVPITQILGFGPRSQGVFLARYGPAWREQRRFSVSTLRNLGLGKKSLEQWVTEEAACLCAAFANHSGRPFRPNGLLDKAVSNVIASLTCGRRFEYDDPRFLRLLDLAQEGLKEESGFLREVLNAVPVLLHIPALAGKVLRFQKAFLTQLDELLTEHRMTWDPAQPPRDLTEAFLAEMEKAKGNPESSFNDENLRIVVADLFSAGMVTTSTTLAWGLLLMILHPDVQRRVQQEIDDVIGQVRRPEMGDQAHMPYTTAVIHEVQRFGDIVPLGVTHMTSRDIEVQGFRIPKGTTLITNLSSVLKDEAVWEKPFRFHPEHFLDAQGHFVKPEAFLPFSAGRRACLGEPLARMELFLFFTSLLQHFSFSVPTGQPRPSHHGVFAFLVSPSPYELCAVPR
Chain of CYP2C19 (P33261 whole entry): as the sequence (P33261 whole entry) above

For triclabendazole sulfone, the “Predicted Microsomal Clint, CYP1A2” value (rCYP1A2) was 0.069 µL/min/mg Protein, the “% Metabolized at 30 min Incubation with Human Liver Fractions/Enzymes rCYP1A2” value (rCYP1A2; [4]) was 0.40% and the “rCYP Clint, CYP1A2” value (rCYP1A2; human, recombinant enzyme) was 0.001 µL/min/pmol. For the same substance, the “% Contribution of CYP Enzymes (fmCYP) in Metabolism, CYP1A2” value (rCYP1A2; recombinant enzyme) was 0.05%, the “% Metabolized at 30 min Incubation with Human Liver Fractions/Enzymes Cytosol” value [1] was 0.00% and the “Predicted Microsomal Clint, CYP2C9” value (rCYP2C9) was 130.447 µL/min/mg Protein. For the same substance, the “% Metabolized at 30 min Incubation with Human Liver Fractions/Enzymes rCYP2C9” value (rCYP2C9; [4]) was 98.31%, the “rCYP Clint, CYP2C9” value (rCYP2C9; human, recombinant enzyme) was 1.359 µL/min/pmol and the “% Contribution of CYP Enzymes (fmCYP) in Metabolism, CYP2C9” value (rCYP2C9; recombinant enzyme) was 97.11%. For the same substance, the “% Inhibition of Control Activity CYP2C8” value (CYP2C8; inhibitor 2 µM) was 65.36%, the “% Inhibition of Control Activity CYP2C8” value (CYP2C8; inhibitor 10 µM) was 92.88% and the IC50 (CYP2C8; read-out: IC50 CYP 2C8) was 1050 nM. For the same substance, the Cmax ([2]; human patients at therapeutic doses of triclabendazole) was 2290 nM, the half-life ([2]; humans) was 11 to 12 h and the “% Inhibition of Control Activity CYP1A2” value (CYP1A2) was 8.60%. The “% Inhibition of Control Activity CYP2C19” value (CYP2C19) was 5.05%, the “% Metabolized at 30 min Incubation with Human Liver Fractions/Enzymes HLM” value [3] was 52.20% and the “Predicted Microsomal Clint, CYP2C19” value (rCYP2C19) was 0.228 µL/min/mg Protein. The “% Metabolized at 30 min Incubation with Human Liver Fractions/Enzymes rCYP2C19” value (rCYP2C19; [4]) was 3.53%, the “rCYP Clint, CYP2C19” value (rCYP2C19; human, recombinant enzyme) was 0.012 µL/min/pmol and the “% Contribution of CYP Enzymes (fmCYP) in Metabolism, CYP2C19” value (rCYP2C19; recombinant enzyme) was 0.17%. The “% Metabolized at 30 min Incubation with Human Liver Fractions/Enzymes rCYP2C8” value (rCYP2C8) was 0.00%, the “% Metabolized at 30 min Incubation with Human Liver Fractions/Enzymes rCYP2D6” value (rCYP2D6) was 0.00% and the “% Inhibition of Control Activity CYP3A4 (substrate, testosterone)” value (CYP3A4; 2 µM) was 4.09%. For the same substance, the “% Inhibition of Control Activity CYP3A4 (substrate, testosterone)” value (CYP3A4; 10 µM) was 8.63%, the “% Inhibition of Control Activity CYP2C9” value (CYP2C9; inhibitor 2 µM) was 78.78% and the “% Inhibition of Control Activity CYP2C9” value (CYP2C9; inhibitor 10 µM) was 96.15%. For the same substance, the IC50 (CYP2C9; read-out: IC50 CYP 2C9) was 690 nM, the “Predicted Microsomal Clint, CYP3A4” value (rCYP3A4) was 3.591 µL/min/mg Protein and the “% Metabolized at 30 min Incubation with Human Liver Fractions/Enzymes rCYP3A4” value (rCYP3A4; [4]) was 9.25%. For the same substance, the “rCYP Clint, CYP3A4” value (rCYP3A4; human, recombinant enzyme) was 0.032 µL/min/pmol and the “% Contribution of CYP Enzymes (fmCYP) in Metabolism, CYP3A4” value (rCYP3A4; recombinant enzyme) was 2.67%.
